Test results reported in article PMC8177795 (Cancer Science, 2021).

Columns and labels:
Safety and tolerability = type: in vivo, Japanese patients
[1] = test system: relapsed/refractory (r/r) B‐cell malignancies; assay: Antitumor activity; type: in vivo, Japanese patients
[2] = Plasma pharmacokinetics of acalabrutinib and ACP‐5862; type: in vivo, Japanese patients
[3] = r/r CLL; cited from earlier work
r/r MCL = details: cited from earlier work
[4] = CLL/SLL cohort (n = 9), Part 1 + Part 2
[5] = MCL cohort (n = 13), Part 1 + Part 2
[6] = multiple dose 100 mg BID, day 8, part 1
[7] = multiple dose 100 mg BID, day 8, part 1, fasting

CC#CC(=O)N1CCC[C@H]1c1nc(-c2ccc(C(=O)Nc3ccccn3)cc2)c2c(N)nccn12 [acalabrutinib]
AE of clinical interest: Other leukopenia (Safety and tolerability; r/r CLL/SLL cohort (N = 9)): 0 n (%) | AE of clinical interest: Second primary malignancies (excl. nonmelanoma skin cancer) (Safety and tolerability; r/r CLL/SLL cohort (N = 9)): 1 (11.1) n (%) | AE of clinical interest: Second primary malignancy (Safety and tolerability; r/r CLL/SLL cohort (N = 9)): 1 (11.1) n (%) | AE of clinical interest: Thrombocytopenia (Safety and tolerability; r/r CLL/SLL cohort (N = 9)): 1 (11.1) n (%) | AE of clinical interest: Tumor lysis syndrome (Safety and tolerability; r/r CLL/SLL cohort (N = 9)): 0 n (%) | Patients with any AE of clinical interest (Safety and tolerability; r/r CLL/SLL cohort (N = 9)): 8 (88.9) n (%) | Patients with any SAE (Safety and tolerability; r/r CLL/SLL cohort (N = 9)): 2 (22.2) n (%) | SAE: Abdominal pain upper (Safety and tolerability; r/r CLL/SLL cohort (N = 9)): 0 n (%) | SAE: Anemia (Safety and tolerability; r/r CLL/SLL cohort (N = 9)): 0 n (%) | SAE: Blood and lymphatic system disorders (Safety and tolerability; r/r CLL/SLL cohort (N = 9)): 0 n (%) | SAE: Colon cancer (Safety and tolerability; r/r CLL/SLL cohort (N = 9)): 1 (11.1) n (%) | SAE: Gastrointestinal disorders (Safety and tolerability; r/r CLL/SLL cohort (N = 9)): 0 n (%) | SAE: Infections and infestations (Safety and tolerability; r/r CLL/SLL cohort (N = 9)): 1 (11.1) n (%) | SAE: Neoplasms benign, malignant, and unspecified (incl. cysts and polyps) (Safety and tolerability; r/r CLL/SLL cohort (N = 9)): 1 (11.1) n (%) | SAE: Pneumonia (Safety and tolerability; r/r CLL/SLL cohort (N = 9)): 1 (11.1) n (%) | AE of clinical interest: Anemia (Safety and tolerability; r/r MCL cohort (N = 13)): 3 (23.1) n (%) | AE of clinical interest: Atrial fibrillation (Safety and tolerability; r/r MCL cohort (N = 13)): 1 (7.7) n (%) | AE of clinical interest: Cardiac events (Safety and tolerability; r/r MCL cohort (N = 13)): 1 (7.7) n (%) | AE of clinical interest: Hemorrhage (Safety and tolerability; r/r MCL cohort (N = 13)): 4 (30.8) n (%) | AE of clinical interest: Hepatotoxicity (Safety and tolerability; r/r MCL cohort (N = 13)): 2 (15.4) n (%) | AE of clinical interest: Infections (Safety and tolerability; r/r MCL cohort (N = 13)): 7 (53.8) n (%) | AE of clinical interest: Interstitial lung disease/pneumonitis (Safety and tolerability; r/r MCL cohort (N = 13)): 1 (7.7) n (%) | AE of clinical interest: Leukopenia (Safety and tolerability; r/r MCL cohort (N = 13)): 4 (30.8) n (%) | AE of clinical interest: Neutropenia (Safety and tolerability; r/r MCL cohort (N = 13)): 3 (23.1) n (%) | AE of clinical interest: Other hemorrhage (Safety and tolerability; r/r MCL cohort (N = 13)): 4 (30.8) n (%) | AE of clinical interest: Other leukopenia (Safety and tolerability; r/r MCL cohort (N = 13)): 3 (23.1) n (%) | AE of clinical interest: Second primary malignancies (excl. nonmelanoma skin cancer) (Safety and tolerability; r/r MCL cohort (N = 13)): 0 n (%) | AE of clinical interest: Second primary malignancy (Safety and tolerability; r/r MCL cohort (N = 13)): 0 n (%) | AE of clinical interest: Thrombocytopenia (Safety and tolerability; r/r MCL cohort (N = 13)): 3 (23.1) n (%) | AE of clinical interest: Tumor lysis syndrome (Safety and tolerability; r/r MCL cohort (N = 13)): 1 (7.7) n (%) | Patients with any AE of clinical interest (Safety and tolerability; r/r MCL cohort (N = 13)): 11 (84.6) n (%) | Patients with any SAE (Safety and tolerability; r/r MCL cohort (N = 13)): 3 (23.1) n (%) | SAE: Abdominal pain upper (Safety and tolerability; r/r MCL cohort (N = 13)): 1 (7.7) n (%) | SAE: Anemia (Safety and tolerability; r/r MCL cohort (N = 13)): 0 n (%) | SAE: Blood and lymphatic system disorders (Safety and tolerability; r/r MCL cohort (N = 13)): 0 n (%) | SAE: Colon cancer (Safety and tolerability; r/r MCL cohort (N = 13)): 0 n (%) | SAE: Gastrointestinal disorders (Safety and tolerability; r/r MCL cohort (N = 13)): 1 (7.7) n (%) | SAE: Infections and infestations (Safety and tolerability; r/r MCL cohort (N = 13)): 2 (15.4) n (%) | SAE: Neoplasms benign, malignant, and unspecified (incl. cysts and polyps) (Safety and tolerability; r/r MCL cohort (N = 13)): 0 n (%) | SAE: Pneumonia (Safety and tolerability; r/r MCL cohort (N = 13)): 2 (15.4) n (%) | CR [1, 4]: 0 Number (%) of patients with a response | CRi [1, 4]: 2 (22) Number (%) of patients with a response | Clinical PD [1, 4]: 0 Number (%) of patients with a response | Nonresponse (total) [1, 4]: 1 (11) Number (%) of patients with a response | Not evaluable [1, 4]: 0 Number (%) of patients with a response | ORR [1, 4]: 8 (89) Number (%) of patients with a response | PD [1, 4]: 0 Number (%) of patients with a response | PR [1, 4]: 6 (67) Number (%) of patients with a response | PRL [1, 4]: 1 (11) Number (%) of patients with a response | Stable disease [1, 4]: 0 Number (%) of patients with a response | ORR ([1]; CLL/SLL cohort including PRL (n = 9), Part 1 + Part 2): 9 (100) Number (%) of patients with a response | CR [1, 5]: 5 (38) Number (%) of patients with a response | Nonresponse (total) [1, 5]: 5 (38) Number (%) of patients with a response | Not evaluable [1, 5]: 0 Number (%) of patients with a response | ORR [1, 5]: 8 (62) Number (%) of patients with a response | PD [1, 5]: 2 (15) Number (%) of patients with a response | PR [1, 5]: 3 (23) Number (%) of patients with a response | Stable disease [1, 5]: 3 (23) Number (%) of patients with a response | Overall response rate (ORR) ([1]; r/r CLL/SLL cohort (8/9 patients)): 89% | Median progression‐free survival (PFS) ([1]; r/r CLL/SLL cohort (n = 9)): not reached | Overall response rate (ORR) ([1]; r/r CLL/SLL cohort including PRL (9/9 patients)): 100% | Overall response rate (ORR) ([1]; r/r MCL cohort (8/13 patients)): 62% | Median progression‐free survival (PFS) ([1]; r/r MCL cohort (n = 13)): 7 months | Coefficient of variation (CV) of Cmax ([2]; after a single dose): 174% | Interpatient variability (CVs) ([2]; after multiple dosing): < 30% | RAC (extent of accumulation on multiple dosing), Amean ± SD [2, 6]: 1.69 | TC (time dependency of pharmacokinetics), Amean ± SD [2, 6]: 1.163 ± 0.4770 | CL/F (oral clearance), Amean ± SD [2, 7]: 84.89 ± 19.84 L/h | t1/2, Amean ± SD [2, 7]: 1.795 ± 0.7404 h | RAC (extent of accumulation on multiple dosing), Amean ± SD ([2]; multiple dose 100 mg BID, day 8, part 1, listed as Acalabrutinib): 1.694 ± 1.275 | CL/F (oral clearance), Amean ± SD ([2]; single dose 100 mg acalabrutinib, part 1, fasting): 99.54 ± 44.33 L/h | Absorption ([2]; single‐ and multiple‐dose periods): rapidly absorbed | Headache, patients [3]: 43% | Headache, patients (r/r MCL): 38%
